How the values were obtained:
[1] = system: Writhing Mouse; test: Writhing Assay (phenylbenzoquinone); assay type: in vivo, mice; details: 30 min before phenylbenzoquinone i.p., Active refers to the effect of the screening dose; for Writhing Mouse, Oral: screening dose 10 mg/kg p.o. (intragastric); for Writhing Mouse, Subc.: screening dose 10 mg/kg s.c.
Method: Male Charles River albino mice (CD-1/HAM/1LR) weighing between 20 and 30 grams were used. Thirty minutes after subcutaneous or intragastric administration of the test compound (0.1 mg/10 gram body weight), 0.025% (w/v) phenylbenzoquinone was injected intraperitoneally (0.1 ml/10 gram body weight). Five minutes later, each mouse was placed in a large glass beaker and the number of writhes that occurred in the subsequent ten minutes is counted. A writhe consisted of dorsoflexion of the back, extension of the hindlimbs, and strong contraction of the abdominal musculature. The test compound was considered to have produced analgesia in a mouse if the number of writhes elicited by phenylbenzoquinone was equal to or less than one-half the median number of writhes recorded for the saline-treated group that day. The results were expressed as the number of mice (out of a possible ten) in which the test compound produced analgesia.

[2] = system: rat; details: injected directly into the brain of the rat; cited from earlier work
[3] = system: opiate receptors isolated from rat brain; assay type: binding; details: 1 nM 3H-Naloxone, rat brain receptor membranes, screening concentration 10^-5 molar

Molecule	Writhing Mouse, Oral [1]	Writhing Mouse, Subc. [1]	analgesic activity [2]	Opiate Binding, IC50 [3]	IC50 ([3]; read-out: Opiate Binding, IC50) [nM]
2,6-dimethyltyrosyl-N-(6-methoxy-6-oxohexyl)-D-alaninamide, monohydrochloride [Example 7]	Inactive	Inactive			
Cc1cc(O)cc(C)c1C[C@H](N)C(=O)N[C@H](C)C(=O)N1CCc2ccccc2C1.Cl (single isomer, unassigned) [Example 35, α-amino-4-hydroxy-2,6-dimethyl-N-[1R-methyl-2-oxo-2-(1,2,3,4-tetrahydro-2-isoquinolinyl)ethyl]benzenepropanamide, monohydrochloride, isomer S]	Active	Active			
Cc1cc(O)cc(C)c1C[C@H](N)C(=O)N[C@@H](C)C(=O)N1CCCc2ccccc21.Cl (relative stereo) [Example 29, αS-R*-amino-4-hydroxy-2,6-dimethyl-N-[1S*-methyl-2-oxo-2-(1,2,3,4-tetrahydro-1-quinolinyl)ethyl]benzenepropanamide, monohydrochloride]	Inactive	Inactive			
2,6-dimethyltyrosyl-N-(6-methoxy-6-oxohexyl)-D-alaninamide, monohydrochloride [Example 5]	Inactive	Inactive			
2,6-dimethyltyrosyl-N-[3-(3-thienyl)-2E-propenyl]-D-alaninamide, monohydrochloride [Example 58]	Inactive	Active			
COc1ccc(CCCNC(=O)[C@@H](C)N)cc1 [Example 60, αR-amino-N-[3-(4-methoxyphenyl)propyl]propanamide]	Active	Active			
methionine enkepthalin			weak, fleeting analgesic activity		
Cc1cc(O)cc(C)c1C[C@H](N)C(=O)N[C@H](C)C(=O)NCCC(c1ccccc1)c1ccccc1.Cl [Example 73, 2,6-dimethyltyrosyl-N-(3,3-diphenylpropyl)-D-alaninamide, monohydrochloride]	Inactive	Active			
C[C@@H](N)C(=O)NCCCc1cccs1 [Example 44, 2R-amino-N-[3-(2-thienyl)propyl]propanamide]	Active	Active		Inactive	
C[C@@H](N)C(=O)NC1Cc2ccccc2C1 [Example 21, 2R-amino-N-(2,3-dihydro-1H-inden-2-yl)propanamide]	Inactive	Active		Inactive	
Cc1cc(O)cc(C)c1C[C@H](N)C(=O)N[C@H](C)C(=O)NCCCc1cccs1.Cl (single isomer, unassigned) [Example 46, 2,6-dimethyltyrosyl-N-[3-(2-thienyl)propyl]-D-alaninamide, monohydrochloride DF isomer]	Inactive	Inactive			220
Cc1cc(O)cc(C)c1CC(NC(=O)OC(C)(C)C)C(=O)N[C@H](C)C(=O)NCCSc1ccccc1 (mixture of isomers) [Example 108, N-[(1,1-dimethylethoxy)carbonyl]-2,6-dimethyl-DL-tyrosyl-N-[2-(phenylthio)ethyl]-D-alaninamide]	Inactive	Active			
2,6-dimethyltyrosyl-N-[3-(2-thienyl)propyl]-D-alaninamide, monohydrochloride [Example 47]	Active	Active			
Cc1cc(O)cc(C)c1CC(NC(=O)OC(C)(C)C)C(=O)N[C@H](C)C(=O)NCCOc1ccccc1 (mixture of isomers) [Example 115, N-[(1,1-dimethylethoxy)carbonyl]02,6-dimethyl-DL-tyrosyl-N-(2-phenoxyethyl)-D-alaninamide]	Active	Active			
Cc1cc(O)cc(C)c1C[C@H](N)C(=O)N[C@H](C)C(=O)NCCc1cccs1.Cl [Example 39, 2,6-dimethyl-L-tyrosyl-N-[2-(2-thienyl)ethyl]-D-alainamide, monohydrochloride]	Inactive	Inactive			
α-amino-4-hydroxy-2,6-dimethyl-N-[1R-methyl-2-oxo-2-(1,2,3,4-tetrahydro-2-isoquinolinyl)ethyl]benzenepropanamide, monohydrochloride [Example 37]	Inactive	Inactive			
Cc1cc(O)cc(C)c1CC(N)C(=O)N[C@H](C)C(=O)N1CCCc2ccccc21.Cl (stereo partly drawn) [Example 30, α-amino-4-hydroxy-2,6-dimethyl-N-[1R-methyl-2-oxo-2-(1,2,3,4-tetrahydro-1-quinolinyl)ethyl]benezenepropanamide, monohydrochloride]	Inactive	Inactive			
C[C@@H](NC(=O)OCc1ccccc1)C(=O)N1CCCc2ccccc21 [Example 25, phenylmethyl [1R-methyl-2-oxo-2-(1,2,3,4-tetrahydro-1-quinolinyl)ethyl]carbamate]	Inactive	Inactive			
C[C@@H](NC(=O)OCc1ccccc1)C(=O)NC1Cc2ccccc2C1 [Example 20, phenylmethyl [2-[(2,3-dihydro-1H-inden-2-yl)amino]-1R-methyl-2-oxoethyl]carbamate]	Inactive	Active		Inactive	
2,6-dimethyltyrosyl-N-[3-(2-thienyl)-2E-propenyl]-D-alaninamide, monohydrochloride [Example 52]	Inactive	Active			
2-(2R-amino-1-oxopropyl)-1,2,3,4-tetrahydroisoquinoline, monohydrochloride [Example 32]	Active	Inactive		Inactive	
Cc1cc(O)cc(C)c1C[C@H](N)C(=O)N[C@H](C)C(=O)NCCSc1ccccc1.Cl [Example 109, 2,6-dimethyltyrosyl-N-[2-(phenylthio)ethyl]-D-alaninamide, monohydrochloride]	Inactive	Active			
2,6-dimethyltyrosyl-N-(2,3-dihydro-1H-inden-2-yl)-D-alaninamide, monohydrochloride [Example 24]	Inactive	Lethal			
